In article PMC5322338 (Scientific Reports, 2017):

Experiments:
[1] = tested on: Trypsin; experiment: trypsin in 0.05 M Tris, 0.15 M NaCl, 0.01% Triton X100, pH 7.6; settings: 37 °C, up to 30 min
[2] = tested on: caspase-3; experiment: caspase-3 in caspase buffer, IQF library screening and kinetics; settings: human, 37 °C, up to 30 min
[3] = tested on: caspase-7; experiment: caspase-7 in caspase buffer, IQF library screening and kinetics; settings: human, 37 °C, up to 30 min
[4] = tested on: trypsin; experiment: IQF substrate hydrolysis kinetics with trypsin; type: biochemical; settings: for kcat/Km values: ACC-GGLSX*IVK(DNP)G substrates, residue named = P1, trypsin
Experimental: All kinetic measurements were performed using a Spectra Max Gemini XPS spectrofluorimeter (Molecular Devices) at 37 °C. […] The substrate concentrations were varied, and the enzyme concentration was kept constant in each assay; the total reaction volume was 100 μl. Measurements were conducted for 30 min, and only the linear part of the progress curve was used to determine the reaction velocity. The measurements were repeated, and the data presented are the average of at least three measurements. The catalytic parameters kcat and KM were established using GraphPad Prism software to directly fit the initial velocities and initial substrate concentrations to the Michaelis-Menten equation using non-linear regression analysis.
Trypsin was assayed in a buffer containing 0.05 M Tris, 0.15 M NaCl, and 0.01% Triton X100 at pH 7.6. The enzyme was incubated with the assay buffer for 10 min at 37 °C prior to the substrate addition and the measurement. Eight internally quenched substrates were tested in the assay. The trypsin concentration for substrates containing Arg and Lys at P1 was 0.1 nM; for Arg(Me) substrates, the enzyme concentration was 30 nM; and for all other substrates, the enzyme concentration was 200 nM.

[5] = tested on: caspase-8; experiment: caspase-8 in caspase buffer supplemented with 1.0 M sodium citrate, IQF library screening and kinetics; settings: human, 37 °C, up to 30 min
[6] = tested on: caspase-9; experiment: caspase-9 in caspase buffer supplemented with 1.0 M sodium citrate, IQF library screening and kinetics; settings: human, 37 °C, up to 30 min
[7] = tested on: caspase-10; experiment: caspase-10 in caspase buffer supplemented with 1.0 M sodium citrate, IQF library screening and kinetics; settings: human, 37 °C, up to 30 min
[8] = target: T1, caspase-3 (Homo sapiens, UniProt P42574); experiment: IQF substrate hydrolysis kinetics with caspase-3; type: biochemical; settings: substrate 1-50 μM, Pipes buffer pH 7.2-7.4, 37 °C, mean of at least three, SD <10%
T1 construct: made in house
T1 sequence (P42574 29-175 limits assumed): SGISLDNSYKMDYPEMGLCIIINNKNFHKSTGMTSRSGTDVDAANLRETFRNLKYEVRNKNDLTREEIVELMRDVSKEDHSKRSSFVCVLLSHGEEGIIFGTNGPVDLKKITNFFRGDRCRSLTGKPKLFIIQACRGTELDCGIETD
T1 sequence (P42574 176-277 limits assumed): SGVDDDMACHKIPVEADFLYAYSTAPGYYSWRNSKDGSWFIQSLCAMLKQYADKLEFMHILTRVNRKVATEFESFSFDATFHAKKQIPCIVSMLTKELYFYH
Experimental: (§1) All kinetic measurements were performed using a Spectra Max Gemini XPS spectrofluorimeter (Molecular Devices) at 37 °C. For the substrates with the new donor acceptor pair, ACC/DNP, the excitation wavelength was 355 nm, and the emission wavelength was 460 nm; for MCA/DNP, the corresponding values were 325 and 420 nm, respectively. The substrate concentrations were varied, and the enzyme concentration was kept constant in each assay; the total reaction volume was 100 μl. Measurements were conducted for 30 min, and only the linear part of the progress curve was used to determine the reaction velocity. The measurements were repeated, and the data presented are the average of at least three measurements. The catalytic parameters kcat and KM were established using GraphPad Prism software to directly fit the initial velocities and initial substrate concentrations to the Michaelis-Menten equation using non-linear regression analysis.
(§2) Caspase assays were performed in a buffer containing 20 mM Pipes, 0.1 M NaCl, 1 mM EDTA, 10 mM DTT, and 10% (w/v) sucrose at pH 7.2 to 7.4[61]. The buffer used for caspase-8, caspase-9 and caspase-10 was supplemented with 1 M sodium citrate. Each caspase was incubated with assay buffer for 30 min at 37 °C before the substrates were added. For caspase-3, the concentration of substrates containing ACC or MCA on the measurement plate ranged from 1 to 50 μM, and the enzyme concentration ranged from 1 to 3 nM. For caspase-7, the concentration of substrates containing ACC or MCA on the measurement plate ranged from 1 to 50 μM, and the enzyme concentration ranged from 10 to 30 nM. For caspase-8, the concentration of a substrates containing ACC or MCA on the measurement plate ranged from 4 to 80 μM, and the enzyme concentration ranged from 20 to 50 nM.
(§3) To obtain further insight into the caspase P1-P1′ preferences, we determined the kinetic parameters for selected IQF substrates. The kinetic analysis was performed in a similar manner to that described above (Substrate Kinetics). The buffers used for caspase-8, caspase-9, and caspase-10 were supplemented with 1.0 M sodium citrate. The enzyme concentrations were as follows: caspase-3, 6 nM; caspase-7, 25 nM; caspase-8, 30–60 nM; caspase-9, 20–140 nM; and caspase-10, 25–125 nM. When testing initiator caspases, the higher enzyme concentration was used for non-optimal LEHE/X substrates.

[9] = target: T2, caspase-7 (Homo sapiens, UniProt P55210); experiment: IQF substrate hydrolysis kinetics with caspase-7; type: biochemical; settings: substrate 1-50 μM, Pipes buffer pH 7.2-7.4, 37 °C, mean of at least three, SD <10%
T2 construct: made in house
T2 sequence (P55210 24-198 limits assumed): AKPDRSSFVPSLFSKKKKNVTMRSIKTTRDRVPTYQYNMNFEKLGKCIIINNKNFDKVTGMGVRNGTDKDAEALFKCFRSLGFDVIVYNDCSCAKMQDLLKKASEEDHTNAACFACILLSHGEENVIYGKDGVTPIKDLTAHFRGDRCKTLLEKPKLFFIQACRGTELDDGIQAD
T2 sequence (P55210 207-303 limits assumed): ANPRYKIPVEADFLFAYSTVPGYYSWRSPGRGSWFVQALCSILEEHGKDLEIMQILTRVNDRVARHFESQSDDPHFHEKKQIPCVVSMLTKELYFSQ
Experimental: as §1, §2, §3

[10] = target: T3, caspase-8 (Homo sapiens, UniProt Q14790); experiment: IQF substrate hydrolysis kinetics with caspase-8; type: biochemical; settings: substrate 4-80 μM, Pipes buffer pH 7.2-7.4 with 1 M sodium citrate, 37 °C, mean of at least three, SD <10%
T3 construct: made in house
T3 sequence (Q14790 217-374 limits assumed): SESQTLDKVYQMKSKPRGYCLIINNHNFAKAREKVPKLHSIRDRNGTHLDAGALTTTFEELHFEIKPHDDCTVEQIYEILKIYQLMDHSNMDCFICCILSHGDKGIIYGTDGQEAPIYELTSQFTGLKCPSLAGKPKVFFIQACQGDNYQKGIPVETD
T3 sequence (Q14790 385-479 limits assumed): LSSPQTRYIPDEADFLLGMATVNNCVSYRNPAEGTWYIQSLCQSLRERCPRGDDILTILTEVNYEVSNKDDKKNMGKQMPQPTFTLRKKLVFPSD
Experimental: as §1, §2, §3

[11] = target: T4, Human neutrophil elastase (Homo sapiens, UniProt P08246); experiment: IQF substrate hydrolysis kinetics with neutrophil elastase; type: biochemical; settings: substrate 0.3-5 μM, 0.1 M HEPES, 0.5 M NaCl pH 7.5, 37 °C, mean of at least three, SD <10%
T4 construct: purchased Biocentrum (Krakow, Poland)
T4 sequence (P08246 30-267): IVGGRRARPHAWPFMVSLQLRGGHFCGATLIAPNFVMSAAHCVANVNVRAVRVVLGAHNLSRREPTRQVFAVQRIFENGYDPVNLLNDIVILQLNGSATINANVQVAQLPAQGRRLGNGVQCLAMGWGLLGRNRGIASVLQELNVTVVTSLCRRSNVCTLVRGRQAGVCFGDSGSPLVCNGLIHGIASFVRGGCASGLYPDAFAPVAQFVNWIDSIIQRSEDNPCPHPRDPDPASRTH
Experimental: as §1
Assays with neutrophil elastase were performed in a buffer containing 0.1 M HEPES and 0.5 M NaCl at pH 7.5[9]. The enzyme was incubated in assay buffer for 10 min at 37 °C prior to the substrate addition and the measurement. For elastase, the concentration of substrates containing ACC ranged from 0.3 to 5 μM, and the enzyme concentration was 0.344 nM. The concentration of substrates containing MCA was ranged from 0.3 to 5 μM, and the enzyme concentration was 1.4 nM.

[12] = ACC-GGLS(P1)*IVK(DNP)G-NH2 hydrolysis by trypsin, trypsin 0.1 nM (Arg, Lys), 30 nM (Arg(Me)), 200 nM (all others), 0.05 M Tris, 0.15 M NaCl, 0.01% Triton X100 pH 7.6, 37 °C, SD <10% (Arg/Lys), <15% (modified)
[13] = MCA/Lys(DNP) substrate, caspase-3 3.0 nM, ex 325/em 420 nm
[14] = MCA/Lys(DNP) substrate, caspase-7 30 nM, ex 325/em 420 nm
[15] = MCA/Lys(DNP) substrate, caspase-8 50 nM, ex 325/em 420 nm
[16] = ACC/Lys(DNP) substrate, elastase 0.34 nM, ex 355/em 460 nm
[17] = MCA/Lys(DNP) substrate, elastase 1.4 nM, ex 325/em 420 nm
[18] = ACC/Lys(DNP) substrate, caspase-3 1.0 nM, ex 355/em 460 nm
[19] = ACC/Lys(DNP) substrate, caspase-7 10 nM, ex 355/em 460 nm
[20] = ACC/Lys(DNP) substrate, caspase-8 20 nM, ex 355/em 460 nm

## ACC-GGLS(P1)*IVK(DNP)G-NH2 [ACC-GGLS(P1)*IVK(DNP)G-NH2, P1 = Citrulline]
[1]
  cleaved bond: Citrulline-I

## ACC-GDEVD/XKK(dnp)G-NH2 [DEVD/A]
[2]
  cleaved bond: D-A
[3]
  cleaved bond: D-A

## Ornithine
[4]; [12]
  Km: 21.9 µM
  kcat: 0.0017 s⁻¹
  kcat/KM: 78 s^−1M^−1

## ACC-GLEHE(G/A/S)KK(dnp)G-NH2 [LEHE/G]
[5]
  cleaved bond: E-G
[6]
  cleaved bond: E-G
[7]
  cleaved bond: E-G

## Citrulline
[4]; [12]
  Km: 90.3 µM
  kcat: 0.000359 s⁻¹
  kcat/KM: 4 s^−1M^−1

## Lysine
[4]; [12]
  Km: 2.8 µM
  kcat: 4.2 s⁻¹
  kcat/KM: 1 500 000 s^−1M^−1
[4]
  kcat/Km values: 1,500,000 M^−1s^−1

## MCA-GDEVD*GVK(dnp)D-NH2 [MCA/Lys(DNP) internally quenched fluorescent substrate for caspases]
[8]; [13]
  Km: 4.67 µM
  kcat: 11.24 s⁻¹
  kcat/KM: 2 359 000 M^−1s^−1
[9]; [14]
  Km: 6.17 µM
  kcat: 0.68 s⁻¹
  kcat/KM: 106 000 M^−1s^−1
[10]; [15]
  Km: 11.7 µM
  kcat: 0.32 s⁻¹
  kcat/KM: 26 300 M^−1s^−1

## ACC-GGLS(P1)*IVK(DNP)G-NH2
[1]
  not cleaved: No measurable hydrolysis

## ACC-GGLS(P1)*IVK(DNP)G-NH2 [ACC-GGLS(P1)*IVK(DNP)G-NH2, P1 = Ornithine]
[1]
  cleaved bond: Ornithine-I

## ACC-GAEPV*SLK(dnp)L-NH2 [ACC/Lys(DNP) internally quenched fluorescent substrate for human neutrophil elastase]
[11]; [16]
  Km: 1.22 µM
  kcat: 2.44 s⁻¹
  kcat/KM: 2 006 000 M^−1s^−1

## ACC-GLEHD(G/A/S)KK(dnp)G-NH2 [LEHD/S]
[5]
  cleaved bond: D-S
[6]
  cleaved bond: D-S
[7]
  cleaved bond: D-S

## MCA-GAEPV*SLK(dnp)L-NH2 [MCA/Lys(DNP) internally quenched fluorescent substrate for human neutrophil elastase]
[11]; [17]
  Km: 2.27 µM
  kcat: 2.58 s⁻¹
  kcat/KM: 1 147 219 M^−1s^−1

## ACC-GDEVD*GVK(dnp)D-NH2 [ACC/Lys(DNP) internally quenched fluorescent substrate for caspases]
[8]; [18]
  Km: 6.74 µM
  kcat: 7.52 s⁻¹
  kcat/KM: 1 116 000 M^−1s^−1
[9]; [19]
  Km: 8.36 µM
  kcat: 0.47 s⁻¹
  kcat/KM: 56 800 M^−1s^−1
[10]; [20]
  Km: 11 µM
  kcat: 0.32 s⁻¹
  kcat/KM: 29 400 M^−1s^−1

## ACC-GDEVD/XKK(dnp)G-NH2 [DEVD/S]
[2]
  cleaved bond: D-S
[3]
  cleaved bond: D-S

## ACC-GLEHD(G/A/S)KK(dnp)G-NH2 [LEHD/G]
[5]
  cleaved bond: D-G
[6]
  cleaved bond: D-G
[7]
  cleaved bond: D-G

## ACC-GLEHE(G/A/S)KK(dnp)G-NH2 [LEHE/S]
[5]
  cleaved bond: E-S
[6]
  cleaved bond: E-S
[7]
  cleaved bond: E-S

## Arginine
[4]; [12]
  Km: 2.5 µM
  kcat: 24.1 s⁻¹
  kcat/KM: 9 624 000 s^−1M^−1
[4]
  kcat/Km values: 9,624,000 M^−1s^−1

## ACC-GLEHD(G/A/S)KK(dnp)G-NH2 [LEHD/A]
[5]
  cleaved bond: D-A
[6]
  cleaved bond: D-A
[7]
  cleaved bond: D-A

## Alanine
[4]; [12]
  KM: No measurable hydrolysis
  kcat: No measurable hydrolysis
  kcat/KM: No measurable hydrolysis
[4]
  kcat/Km values: did not recognize

## ACC-GDEVE/XKK(dnp)G-NH2 [DEVE/S]
[2]
  cleaved bond: E-S
[3]
  cleaved bond: E-S

## ACC-GDEVD/XKK(dnp)G-NH2 [DEVD/G]
[2]
  cleaved bond: D-G
[3]
  cleaved bond: D-G

## ACC-GLEHE(G/A/S)KK(dnp)G-NH2 [LEHE/A]
[5]
  cleaved bond: E-A
[6]
  cleaved bond: E-A
[7]
  cleaved bond: E-A
